# Tests used:
# Assay type in all cases: in vivo
# Setaria faberi (SETFA) [1] = assay: Post-emergence herbicidal glasshouse test; details: post-emergence, 250 g/ha, 13 days after application
# Description: (§1) Seeds of a variety of test species are shown in standard soil in pots Amaranthus retoflexus (AMARE), Ipomoea hederacea (IPOHE), Solanum nigrum (SOLNI), Lolium perenne (LOLPE). Echinochloa crus-galli (ECHCG), Setaria faberi (SETFA)). After cultivation for one day (pre-emergence) or after 8 days cultivation (post-emergence) under controlled conditions in a glasshouse (at 24/16° C., day/night; 14 hours light; 65% humidity), the plants are sprayed with an aqueous spray solution derived from the formulation of the technical active ingredient in acetone/water (50:50) solution containing 0.5% Tween 20 (polyoxyethylene sorbitan monolaurate, CAS RN 9005-64-5). Compounds are applied at 250 g/ha unless otherwise stated. The test plants are then grown in a glasshouse under controlled conditions in a glasshouse (at 24/16° C., day/night; 14 hours light; 65% humidity) and watered twice daily. After 13 days for pre and post-emergence, the test is evaluated for the percentage damage caused to the plant. The biological activities are shown in the following table on a five-point scale (5=81-100%; 4=61-80%; 3=41-60%; 2=21-40%; 1=0-20%).
# (§2) Using the experimental conditions outlined above, a further test is conducted to compare the herbicidal properties of the difluro containing compound (1.014) with a representative compound (C1) referred to in GB901553. The compounds are applied at 1000 g/ha and 500 g/ha. The test is evaluated for the percentage damage caused to the plant (% phytotoxicity).
# [2] = test system: Echinochloa crus-galli (ECHCG); assay: Post-emergence herbicidal glasshouse test; details: post-emergence, 250 g/ha, 13 days after application
# Description: as §1, §2
# Lolium perenne (LOLPE) [3] = assay: Post-emergence herbicidal glasshouse test; details: post-emergence, 250 g/ha, 13 days after application
# Description: as §1, §2
# [4] = test system: Amaranthus retoflexus (AMARE); assay: Post-emergence herbicidal glasshouse test; details: post-emergence, 250 g/ha, 13 days after application
# Description: as §1, §2
# Solanum nigrum (SOLNI) = assay: Post-emergence herbicidal glasshouse test; details: post-emergence, 250 g/ha, 13 days after application
# Description: as §1, §2
# [5] = test system: Ipomoea hederacea (IPOHE); assay: Post-emergence herbicidal glasshouse test; details: post-emergence, 250 g/ha, 13 days after application
# Description: as §1, §2
# Setaria faberi (SETFA) [6] = assay: Pre-emergence herbicidal glasshouse test; details: pre-emergence, 250 g/ha, 13 days after application
# Description: as §1, §2
# [7] = test system: Echinochloa crus-galli (ECHCG); assay: Pre-emergence herbicidal glasshouse test; details: pre-emergence, 250 g/ha, 13 days after application
# Description: as §1, §2
# Lolium perenne (LOLPE) [8] = assay: Pre-emergence herbicidal glasshouse test; details: pre-emergence, 250 g/ha, 13 days after application
# Description: as §1, §2
# [9] = test system: Ipomoea hederacea (IPOHE); assay: Pre-emergence herbicidal glasshouse test; details: pre-emergence, 250 g/ha, 13 days after application
# Description: as §1, §2
# [10] = test system: Amaranthus retoflexus (AMARE); assay: Pre-emergence herbicidal glasshouse test; details: pre-emergence, 250 g/ha, 13 days after application
# Description: as §1, §2
SMILES,"percentage damage caused to the plant, five-point scale, SETFA (Setaria faberi (SETFA) [1])","percentage damage caused to the plant, five-point scale, ECHCG [2]","percentage damage caused to the plant, five-point scale, LOLPE (Lolium perenne (LOLPE) [3])","percentage damage caused to the plant, five-point scale, AMARE [4]","percentage damage caused to the plant, five-point scale, SOLNI (Solanum nigrum (SOLNI))","percentage damage caused to the plant, five-point scale, IPOHE [5]","percentage damage caused to the plant, five-point scale, SETFA (Setaria faberi (SETFA) [6])","percentage damage caused to the plant, five-point scale, ECHCG [7]","percentage damage caused to the plant, five-point scale, LOLPE (Lolium perenne (LOLPE) [8])","percentage damage caused to the plant, five-point scale, IPOHE [9]","percentage damage caused to the plant, five-point scale, AMARE [10]"
O=C(O)C(F)(F)c1cccc(Cl)c1Cl [Compound 1.034],3 (3=41-60%),2 (2=21-40%),1 (1=0-20%),5 (5=81-100%),3 (3=41-60%),4 (4=61-80%),1 (1=0-20%),2 (2=21-40%),2 (2=21-40%),5 (5=81-100%),
O=C([O-])C(F)(F)c1cccc(Cl)c1Cl.[Na+] [Compound 1.038],4 (4=61-80%),2 (2=21-40%),1 (1=0-20%),5 (5=81-100%),4 (4=61-80%),4 (4=61-80%),3 (3=41-60%),1 (1=0-20%),2 (2=21-40%),5 (5=81-100%),
O=C(O)C(F)(F)c1cccc(Cl)c1Cl [Compound 1.039],3 (3=41-60%),2 (2=21-40%),1 (1=0-20%),5 (5=81-100%),3 (3=41-60%),4 (4=61-80%),2 (2=21-40%),1 (1=0-20%),3 (3=41-60%),5 (5=81-100%),
O=C(O)C(F)(F)c1cccc(Cl)c1Cl [Compound 1.040],3 (3=41-60%),2 (2=21-40%),1 (1=0-20%),4 (4=61-80%),2 (2=21-40%),3 (3=41-60%),1 (1=0-20%),1 (1=0-20%),1 (1=0-20%),5 (5=81-100%),
O=C(O)C(F)(F)c1cccc(Cl)c1Cl [Compound 1.041],,4 (4=61-80%),4 (4=61-80%),,4 (4=61-80%),,,,,,
O=C([O-])C(F)(F)c1cccc(Cl)c1Cl.[K+] [Compound 1.042],3 (3=41-60%),2 (2=21-40%),1 (1=0-20%),5 (5=81-100%),4 (4=61-80%),4 (4=61-80%),,1 (1=0-20%),2 (2=21-40%),5 (5=81-100%),
O=C(O)C(F)(F)c1c(Cl)cccc1Cl [Compound 1.044],,1 (1=0-20%),,3 (3=41-60%),,4 (4=61-80%),,1 (1=0-20%),,3 (3=41-60%),2 (2=21-40%)
O=C(O)C(F)(F)c1cccc(Cl)c1Br [Compound 1.050],,2 (2=21-40%),,5 (5=81-100%),,5 (5=81-100%),,2 (2=21-40%),,5 (5=81-100%),5 (5=81-100%)
O=C(O)C(F)(F)c1ccc(F)c(Cl)c1F [Compound 1.051],,1 (1=0-20%),,5 (5=81-100%),,4 (4=61-80%),,1 (1=0-20%),,5 (5=81-100%),3 (3=41-60%)
Cc1c(Cl)cccc1C(F)(F)C(=O)O [Compound 1.058],,3 (3=41-60%),,5 (5=81-100%),,5 (5=81-100%),,3 (3=41-60%),,5 (5=81-100%),5 (5=81-100%)
O=C(O)C(F)(F)c1cccc(C(F)(F)F)c1Cl [Compound 1.059],,3 (3=41-60%),,5 (5=81-100%),,5 (5=81-100%),,1 (1=0-20%),,5 (5=81-100%),1 (1=0-20%)
O=C(O)C(F)(F)c1cccc(Cl)c1C(F)(F)F [Compound 1.060],,1 (1=0-20%),,5 (5=81-100%),,5 (5=81-100%),,1 (1=0-20%),,3 (3=41-60%),5 (5=81-100%)
Cc1cccc(C(F)(F)C(=O)O)c1F.N [Compound 1.061],,1 (1=0-20%),,1 (1=0-20%),,3 (3=41-60%),,1 (1=0-20%),,1 (1=0-20%),3 (3=41-60%)
Cc1cccc(C(F)(F)C(=O)O)c1C(F)(F)F.N [Compound 1.062],,1 (1=0-20%),,4 (4=61-80%),,3 (3=41-60%),,1 (1=0-20%),,3 (3=41-60%),3 (3=41-60%)
Cc1ccc(Cl)c(Cl)c1C(F)(F)C(=O)O.N [Compound 1.063],,1 (1=0-20%),,4 (4=61-80%),,3 (3=41-60%),,1 (1=0-20%),,1 (1=0-20%),1 (1=0-20%)
Cc1c(F)cccc1C(F)(F)C(=O)O [Compound 1.075],,1 (1=0-20%),,5 (5=81-100%),,4 (4=61-80%),,1 (1=0-20%),,3 (3=41-60%),3 (3=41-60%)
Cc1c(Cl)ccc(Cl)c1C(F)(F)C(=O)O.N [Compound 1.084],,1 (1=0-20%),,2 (2=21-40%),,4 (4=61-80%),,1 (1=0-20%),,1 (1=0-20%),2 (2=21-40%)

# — patent US12319648B2, “Fluorinated phenylacetic acid derivatives in a weed control method” (SYNGENTA CROP PROTECTION AG, priority 2019, dated 2025)
